Source: ChEMBL document CHEMBL4339238, “Potent Anti-HIV Ingenane Diterpenoids from Euphorbia ebracteolata” (J Nat Prod, 2019)

How the values were obtained:
[1] = Cytotoxicity against human MT4 cells measured after 3 days by CytoTox-Glo assay; format: cell-based
[2] = Selectivity index, ratio of CC50 for human MT4 cells to IC50 for HIV NL4-3 infected in human MT4 cells; format: toxicity, cell-based; conditions: read-out: Ratio CC50/IC50
[3] = test system: Human immunodeficiency virus 1; test: Antiviral activity against HIV NL4-3 infected in human MT4 cells measured on day 3 post-infection by Nano-Glo luciferase assay; format: functional, organism-based; conditions: Human immunodeficiency virus 1, NL4-3, MT4, 72 h

Row | SMILES | IC50 [3] | CC50 at 72 h [1] | selectivity ratio [2]
1 | CCCCCCCCCCCCCCCC(=O)O[C@H]1C(C)=C[C@]23C(=O)[C@@H](C=C(CO)[C@@H](O)[C@]12O)[C@H]1[C@@H](C[C@H]3C)C1(C)C | 4.1 nM | 26.3 µM | 6420
2 | CCCCC/C=C\C=C\C(=O)O[C@H]1C(C)=C[C@]23C(=O)[C@@H](C=C(COC(C)=O)[C@@H](O)[C@]12O)[C@H]1[C@@H](C[C@H]3C)C1(C)C | 1.8 nM | > 0.9 µM | > 526
3 | CCCC\C=C/C=C/C=C/C(=O)O[C@H]1C(C)=C[C@]23C(=O)[C@@H](C=C(COC(C)=O)[C@@H](O)[C@]12O)[C@H]1[C@@H](C[C@H]3C)C1(C)C | 8.4 nM | > 0.9 µM | > 111
4 | CCCCCCCCCCCCCCCC(=O)O[C@@H]1C(CO)=C[C@@H]2C(=O)[C@]3(C=C(C)[C@H](O)[C@@]13O)[C@H](C)C[C@@H]1[C@H]2C1(C)C | 4.4 nM | > 1.7 µM | > 385
5 | CCCCC/C=C/C=C/C(=O)O[C@H]1C(C)=C[C@]23C(=O)[C@@H](C=C(COC(C)=O)[C@@H](O)[C@]12O)[C@H]1[C@@H](C[C@H]3C)C1(C)C | 5 nM | > 0.9 µM | > 185
6 | CCCCCCCCCCCCCC(=O)OCC1=C[C@@H]2C(=O)[C@]3(C=C(C)[C@H](O)[C@@]3(O)[C@@H]1O)[C@H](C)C[C@@H]1[C@H]2C1(C)C | 8.6 nM | 32.4 µM | 3770
7 | CCCC\C=C/C=C\C=C\C(=O)O[C@H]1C(C)=C[C@]23C(=O)[C@@H](C=C(COC(C)=O)[C@@H](O)[C@]12O)[C@H]1[C@@H](C[C@H]3C)C1(C)C | 9.7 nM | > 0.9 µM | > 96.2
8 | CCCCCC/C=C\CCCCCCCC(=O)O[C@H]1C(C)=C[C@]23C(=O)[C@@H](C=C(CO)[C@@H](O)[C@@]12O)[C@H]1[C@@H](C[C@H]3C)C1(C)C | 2.7 nM | > 1.7 µM | > 625
9 | CCCCCCCCCCCCCC(=O)O[C@@H]1C(CO)=C[C@@H]2C(=O)[C@]3(C=C(C)[C@H](O)[C@@]13O)[C@H](C)C[C@@H]1[C@H]2C1(C)C | 3.9 nM | > 1.8 µM | > 454
10 | CCCCCCCCCC(=O)OCC1=C[C@@H]2C(=O)[C@]3(C=C(C)[C@H](O)[C@@]3(O)[C@@H]1O)[C@H](C)C[C@@H]1[C@H]2C1(C)C | 8.2 nM | 48.8 µM | 5980
11 | CC1=C[C@]23C(=O)[C@@H](C=C(CO)[C@@H](O)[C@]2(O)[C@H]1O)[C@H]1[C@@H](C[C@H]3C)C1(C)C [INGENOL] | > 10 nM | > 10 µM | 
12 | Cc1cn([C@H]2C[C@H](N=[N+]=[N-])[C@@H](CO)O2)c(=O)[nH]c1=O [ZIDOVUDINE] | 18.7 nM | > 0.37 µM | > 20

More lines, in order of falling IC50 [3], values ahead:

Row | IC50 [3] | SMILES | CC50 at 72 h [1] | selectivity ratio [2]
13 | 2.3 nM | CCCCCCCCCCCCCC(=O)O[C@H]1C(C)=C[C@]23C(=O)[C@@H](C=C(CO)[C@@H](O)[C@]12O)[C@H]1[C@@H](C[C@H]3C)C1(C)C | 26.3 µM | 11300
14 | 1.2 nM | CCCCC/C=C/C=C/C(=O)O[C@@H]1C(COC(C)=O)=C[C@@H]2C(=O)[C@]3(C=C(C)[C@H](O)[C@@]13O)[C@H](C)C[C@@H]1[C@H]2C1(C)C | 15.2 µM | 13000
15 | 1.1 nM | CCCCCCCCCCCCCCCC(=O)OCC1=C[C@@H]2C(=O)[C@]3(C=C(C)[C@H](O)[C@@]3(O)[C@@H]1O)[C@H](C)C[C@@H]1[C@H]2C1(C)C | > 1.7 µM | > 1540
16 | 1.1 nM | CCCCCC/C=C/CCCCCCCC(=O)O[C@H]1C(C)=C[C@]23C(=O)[C@@H](C=C(CO)[C@@H](O)[C@@]12O)[C@H]1[C@@H](C[C@H]3C)C1(C)C | 13.9 µM | 13100
17 | 0.7 nM | CCCCC/C=C\C=C\C(=O)O[C@@H]1C(COC(C)=O)=C[C@@H]2C(=O)[C@]3(C=C(C)[C@H](O)[C@@]13O)[C@H](C)C[C@@H]1[C@H]2C1(C)C | 14.3 µM | 20300
